Source: ChEMBL document CHEMBL1201862, “PubChem BioAssay data set” (2004)
Activity calls are given as the source filed them.

Experiments:
Assay type in all cases: functional
[1] = biological target: Ribosomal protein S6 kinase alpha-3 (Homo sapiens, UniProt P51812);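 note: measured within a kinome-wide profiling panel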
[2] = biological target: Phosphorylase b kinase gamma catalytic chain, liver/testis isoform (Homo sapiens, UniProt P15735);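 note: PHKG2 measured as one member of a kinome-wide kinase panel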
[3] = biological target: Serine/threonine-protein kinase PLK3 (Homo sapiens, UniProt Q9H4B4)
[4] = biological target: Proto-oncogene tyrosine-protein kinase receptor Ret (Homo sapiens, UniProt P07949);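 note: measured within a kinome-wide profiling panel, RET as the panel member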
[5] = biological target: Serine/threonine-protein kinase D2 (Homo sapiens, UniProt Q9BZL6);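 note: measured against PRKD2 as one member of a kinome-wide kinase profiling panel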
Serine/threonine-protein kinase D2, sequence (Q9BZL6 whole entry): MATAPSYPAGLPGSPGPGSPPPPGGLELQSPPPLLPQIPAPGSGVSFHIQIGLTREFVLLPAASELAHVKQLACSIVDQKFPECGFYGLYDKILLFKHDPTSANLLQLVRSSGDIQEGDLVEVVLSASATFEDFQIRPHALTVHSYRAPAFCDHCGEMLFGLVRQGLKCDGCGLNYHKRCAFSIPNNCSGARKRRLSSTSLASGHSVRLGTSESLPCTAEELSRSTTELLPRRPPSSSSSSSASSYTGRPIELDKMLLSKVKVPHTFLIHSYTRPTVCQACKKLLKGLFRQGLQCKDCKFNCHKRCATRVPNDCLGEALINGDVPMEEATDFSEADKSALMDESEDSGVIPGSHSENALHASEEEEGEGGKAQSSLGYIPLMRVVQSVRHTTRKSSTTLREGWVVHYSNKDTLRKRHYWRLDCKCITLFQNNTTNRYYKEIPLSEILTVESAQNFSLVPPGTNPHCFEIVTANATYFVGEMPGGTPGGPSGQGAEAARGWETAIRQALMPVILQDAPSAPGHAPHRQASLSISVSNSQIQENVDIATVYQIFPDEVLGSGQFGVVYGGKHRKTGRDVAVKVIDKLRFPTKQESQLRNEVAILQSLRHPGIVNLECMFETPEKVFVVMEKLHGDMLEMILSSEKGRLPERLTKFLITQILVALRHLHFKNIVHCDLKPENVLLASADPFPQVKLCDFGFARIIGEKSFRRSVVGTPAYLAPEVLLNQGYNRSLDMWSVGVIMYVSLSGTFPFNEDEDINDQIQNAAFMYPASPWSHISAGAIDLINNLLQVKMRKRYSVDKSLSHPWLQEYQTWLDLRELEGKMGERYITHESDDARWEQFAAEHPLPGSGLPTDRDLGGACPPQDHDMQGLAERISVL

[6] = biological target: Tyrosine-protein kinase Lck (Homo sapiens, UniProt P06239);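 note: lck was assayed as one member of a kinase panel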
Tyrosine-protein kinase Lck, sequence (P06239 whole entry): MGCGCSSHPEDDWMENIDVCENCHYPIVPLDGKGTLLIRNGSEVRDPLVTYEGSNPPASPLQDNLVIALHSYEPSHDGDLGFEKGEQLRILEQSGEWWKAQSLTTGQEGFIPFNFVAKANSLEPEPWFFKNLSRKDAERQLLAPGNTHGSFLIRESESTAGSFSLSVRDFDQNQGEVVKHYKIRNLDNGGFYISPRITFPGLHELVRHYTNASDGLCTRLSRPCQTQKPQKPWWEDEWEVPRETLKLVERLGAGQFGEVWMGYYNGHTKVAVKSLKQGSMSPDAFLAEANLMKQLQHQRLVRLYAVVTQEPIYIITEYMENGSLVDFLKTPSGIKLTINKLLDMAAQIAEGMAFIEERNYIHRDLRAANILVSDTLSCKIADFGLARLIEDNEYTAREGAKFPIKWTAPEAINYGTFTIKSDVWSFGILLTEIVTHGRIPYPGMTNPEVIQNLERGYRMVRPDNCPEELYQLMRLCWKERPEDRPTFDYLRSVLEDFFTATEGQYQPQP

[7] = biological target: Death-associated protein kinase 3 (Homo sapiens, UniProt O43293);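 note: measured as one member of a kinome-wide profiling panel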
[8] = biological target: Serine/threonine-protein kinase pim-1 (Homo sapiens, UniProt P11309)
[9] = biological target: Tyrosine-protein kinase BTK (Homo sapiens, UniProt Q06187)
[10] = biological target: Calcium/calmodulin-dependent protein kinase type II subunit delta (Homo sapiens, UniProt Q13557)
[11] = biological target: Fibroblast growth factor receptor 1 (Homo sapiens, UniProt P11362)
[12] = biological target: Tyrosine-protein kinase JAK3 (Homo sapiens, UniProt P52333)
[13] = biological target: Serine/threonine-protein kinase N2 (Homo sapiens, UniProt Q16513)
[14] = biological target: Proto-oncogene tyrosine-protein kinase ROS (Homo sapiens, UniProt P08922);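 note: ROS1 tested as one member of a kinome-wide kinase panel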
[15] = biological target: Homeodomain-interacting protein kinase 2 (Homo sapiens, UniProt Q9H2X6);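 note: measured within a kinome-wide kinase profiling panel, HIPK2 being one panel member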
[16] = biological target: High affinity nerve growth factor receptor (Homo sapiens, UniProt P04629);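 note: NTRK1 tested as one member of a kinome-wide profiling panel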
[17] = biological target: Insulin receptor (Homo sapiens, UniProt P06213);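 note: insulin receptor kinase tested as one member of a kinome-wide kinase panel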
[18] = biological target: Mitogen-activated protein kinase kinase kinase 20 (Homo sapiens, UniProt Q9NYL2)
Mitogen-activated protein kinase kinase kinase 20, sequence (Q9NYL2 whole entry): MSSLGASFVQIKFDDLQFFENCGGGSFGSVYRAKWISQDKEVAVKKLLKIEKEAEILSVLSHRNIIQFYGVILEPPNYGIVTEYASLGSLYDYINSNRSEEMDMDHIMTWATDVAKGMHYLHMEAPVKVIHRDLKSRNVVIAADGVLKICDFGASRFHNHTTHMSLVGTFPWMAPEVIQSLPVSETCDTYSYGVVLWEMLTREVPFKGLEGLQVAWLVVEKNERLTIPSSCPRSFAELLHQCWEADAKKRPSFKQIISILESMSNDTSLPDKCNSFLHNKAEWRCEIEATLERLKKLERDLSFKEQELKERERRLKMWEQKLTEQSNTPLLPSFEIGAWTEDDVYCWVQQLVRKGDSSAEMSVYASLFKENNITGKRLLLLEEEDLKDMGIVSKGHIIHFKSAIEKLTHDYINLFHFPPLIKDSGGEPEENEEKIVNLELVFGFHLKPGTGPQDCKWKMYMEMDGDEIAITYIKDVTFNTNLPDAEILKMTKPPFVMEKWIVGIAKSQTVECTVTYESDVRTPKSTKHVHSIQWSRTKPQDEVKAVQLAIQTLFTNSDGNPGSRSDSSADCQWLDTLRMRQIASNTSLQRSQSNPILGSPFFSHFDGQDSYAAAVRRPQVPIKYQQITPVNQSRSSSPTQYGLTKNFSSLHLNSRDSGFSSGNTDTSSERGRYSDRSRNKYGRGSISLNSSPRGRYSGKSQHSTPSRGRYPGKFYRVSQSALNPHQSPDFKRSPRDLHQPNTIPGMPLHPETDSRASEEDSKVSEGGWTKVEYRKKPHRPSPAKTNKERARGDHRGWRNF

[19] = biological target: Non-receptor tyrosine-protein kinase TYK2 (Homo sapiens, UniProt P29597)
[20] = biological target: Protein kinase C gamma type (Homo sapiens, UniProt P05129)
[21] = biological target: Proto-oncogene tyrosine-protein kinase Src (Homo sapiens, UniProt P12931);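 note: SRC entry within a kinome-wide kinase profiling panel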
[22] = biological target: Tyrosine-protein kinase Srms (Homo sapiens, UniProt Q9H3Y6);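 note: SRMS measured as one member of a kinome-wide kinase profiling panel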
[23] = biological target: Mitogen-activated protein kinase kinase kinase kinase 2 (Homo sapiens, UniProt Q12851);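 note: measured as one member of a kinome-wide kinase panel, with MAP4K2 as the panel entry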
[24] = biological target: Dual specificity tyrosine-phosphorylation-regulated kinase 3 (Homo sapiens, UniProt O43781);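 note: measured as one member of a broad kinase panel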
[25] = biological target: Hepatocyte growth factor receptor (Homo sapiens, UniProt P08581);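 note: kinase panel profiling across the kinome, with MET as the panel member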
[26] = biological target: Receptor tyrosine-protein kinase erbB-2 (Homo sapiens, UniProt P04626); experiment: Navigating the Kinome. Panel member name: ERBB2
Receptor tyrosine-protein kinase erbB-2, sequence (P04626 whole entry): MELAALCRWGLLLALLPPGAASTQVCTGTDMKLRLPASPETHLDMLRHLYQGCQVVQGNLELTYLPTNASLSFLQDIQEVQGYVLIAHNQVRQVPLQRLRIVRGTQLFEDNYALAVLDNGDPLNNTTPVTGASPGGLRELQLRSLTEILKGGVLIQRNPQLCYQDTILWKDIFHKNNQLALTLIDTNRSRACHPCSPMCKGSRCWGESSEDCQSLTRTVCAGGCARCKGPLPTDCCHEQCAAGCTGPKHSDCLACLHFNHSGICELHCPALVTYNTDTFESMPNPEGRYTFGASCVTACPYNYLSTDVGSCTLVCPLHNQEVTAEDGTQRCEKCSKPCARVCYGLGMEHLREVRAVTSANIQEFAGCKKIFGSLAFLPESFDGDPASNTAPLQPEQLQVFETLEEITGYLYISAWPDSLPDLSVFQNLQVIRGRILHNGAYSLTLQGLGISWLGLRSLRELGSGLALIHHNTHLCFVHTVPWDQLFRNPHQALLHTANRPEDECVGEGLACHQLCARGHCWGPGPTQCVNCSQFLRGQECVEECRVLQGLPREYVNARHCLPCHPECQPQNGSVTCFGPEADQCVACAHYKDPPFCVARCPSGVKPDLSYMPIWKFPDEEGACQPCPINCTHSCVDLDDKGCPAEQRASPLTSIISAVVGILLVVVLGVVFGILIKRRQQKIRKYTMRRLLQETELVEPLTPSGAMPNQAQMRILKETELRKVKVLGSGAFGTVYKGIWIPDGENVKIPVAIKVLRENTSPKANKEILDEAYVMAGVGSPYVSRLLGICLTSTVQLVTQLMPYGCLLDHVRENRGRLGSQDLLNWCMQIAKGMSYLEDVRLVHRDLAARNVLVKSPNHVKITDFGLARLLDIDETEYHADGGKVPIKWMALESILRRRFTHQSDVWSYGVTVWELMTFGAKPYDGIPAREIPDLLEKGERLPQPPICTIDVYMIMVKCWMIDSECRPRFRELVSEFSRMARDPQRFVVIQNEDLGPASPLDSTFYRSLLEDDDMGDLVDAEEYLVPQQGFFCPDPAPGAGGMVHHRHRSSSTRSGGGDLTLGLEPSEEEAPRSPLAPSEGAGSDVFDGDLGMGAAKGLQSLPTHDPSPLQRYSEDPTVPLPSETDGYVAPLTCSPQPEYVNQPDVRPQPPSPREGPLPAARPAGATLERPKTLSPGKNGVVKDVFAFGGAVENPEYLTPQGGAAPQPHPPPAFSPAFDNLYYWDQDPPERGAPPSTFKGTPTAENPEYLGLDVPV

[27] = biological target: MAP kinase-activated protein kinase 3 (Homo sapiens, UniProt Q16644);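 note: value comes from a kinome-wide profiling panel in which MAPKAPK3 is one of the panel members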
[28] = biological target: MAP kinase-interacting serine/threonine-protein kinase 2 (Homo sapiens, UniProt Q9HBH9)
[29] = biological target: Dual specificity tyrosine-phosphorylation-regulated kinase 4 (Homo sapiens, UniProt Q9NR20)
[30] = biological target: Interleukin-1 receptor-associated kinase 1 (Homo sapiens, UniProt P51617);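 note: IRAK1 tested as one member of a kinome panel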
[31] = biological target: Maternal embryonic leucine zipper kinase (Homo sapiens, UniProt Q14680)
[32] = biological target: Interleukin-1 receptor-associated kinase 4 (Homo sapiens, UniProt Q9NWZ3)
[33] = biological target: Mitogen-activated protein kinase kinase kinase kinase 5 (Homo sapiens, UniProt Q9Y4K4);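 note: measured as one member of a kinome-spanning kinase panel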
[34] = biological target: Calcium/calmodulin-dependent protein kinase type 1 (Homo sapiens, UniProt Q14012)
[35] = biological target: Serine/threonine-protein kinase pim-2 (Homo sapiens, UniProt Q9P1W9);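 note: value comes from a broad kinase panel profiling study in which PIM2 was one of the panel members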
[36] = biological target: 3-phosphoinositide-dependent protein kinase 1 (Homo sapiens, UniProt O15530);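 note: value comes from the Navigating the Kinome panel, PDPK1 member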
3-phosphoinositide-dependent protein kinase 1, sequence (O15530 whole entry): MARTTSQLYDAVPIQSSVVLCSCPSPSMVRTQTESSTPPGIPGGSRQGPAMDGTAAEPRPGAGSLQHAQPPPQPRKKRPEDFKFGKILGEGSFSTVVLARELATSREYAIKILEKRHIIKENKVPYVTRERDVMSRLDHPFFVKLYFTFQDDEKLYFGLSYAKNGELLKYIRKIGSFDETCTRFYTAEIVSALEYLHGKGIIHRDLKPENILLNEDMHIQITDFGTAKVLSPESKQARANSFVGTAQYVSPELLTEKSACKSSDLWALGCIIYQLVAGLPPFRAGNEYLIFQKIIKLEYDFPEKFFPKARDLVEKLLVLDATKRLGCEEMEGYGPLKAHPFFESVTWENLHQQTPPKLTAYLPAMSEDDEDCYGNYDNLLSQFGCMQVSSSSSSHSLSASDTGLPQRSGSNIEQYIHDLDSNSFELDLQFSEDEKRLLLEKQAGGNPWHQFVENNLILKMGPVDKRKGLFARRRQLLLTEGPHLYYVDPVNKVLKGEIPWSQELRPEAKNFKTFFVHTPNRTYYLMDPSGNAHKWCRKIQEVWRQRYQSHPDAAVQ

[37] = biological target: Serine/threonine-protein kinase Nek2 (Homo sapiens, UniProt P51955)
Serine/threonine-protein kinase Nek2, sequence (P51955 whole entry): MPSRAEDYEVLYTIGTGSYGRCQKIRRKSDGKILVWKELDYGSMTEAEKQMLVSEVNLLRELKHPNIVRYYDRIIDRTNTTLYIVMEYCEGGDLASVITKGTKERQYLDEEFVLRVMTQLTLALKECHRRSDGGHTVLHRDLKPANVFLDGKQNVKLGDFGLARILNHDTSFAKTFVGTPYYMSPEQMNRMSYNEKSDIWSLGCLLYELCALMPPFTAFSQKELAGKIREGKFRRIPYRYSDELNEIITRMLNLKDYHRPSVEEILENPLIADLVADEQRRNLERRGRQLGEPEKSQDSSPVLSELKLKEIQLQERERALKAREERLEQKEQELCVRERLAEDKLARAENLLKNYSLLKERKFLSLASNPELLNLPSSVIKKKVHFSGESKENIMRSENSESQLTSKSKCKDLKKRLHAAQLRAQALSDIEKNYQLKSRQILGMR

[38] = biological target: Vascular endothelial growth factor receptor 1 (Homo sapiens, UniProt P17948);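 note: measured within a kinome-wide profiling panel, FLT1 as the panel member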
[39] = biological target: STE20-like serine/threonine-protein kinase (Homo sapiens, UniProt Q9H2G2)
[40] = biological target: Glycogen synthase kinase-3 beta (Homo sapiens, UniProt P49841);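 note: value comes from a broad kinome profiling panel, with GSK3B as the panel member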
Glycogen synthase kinase-3 beta, sequence (P49841 whole entry): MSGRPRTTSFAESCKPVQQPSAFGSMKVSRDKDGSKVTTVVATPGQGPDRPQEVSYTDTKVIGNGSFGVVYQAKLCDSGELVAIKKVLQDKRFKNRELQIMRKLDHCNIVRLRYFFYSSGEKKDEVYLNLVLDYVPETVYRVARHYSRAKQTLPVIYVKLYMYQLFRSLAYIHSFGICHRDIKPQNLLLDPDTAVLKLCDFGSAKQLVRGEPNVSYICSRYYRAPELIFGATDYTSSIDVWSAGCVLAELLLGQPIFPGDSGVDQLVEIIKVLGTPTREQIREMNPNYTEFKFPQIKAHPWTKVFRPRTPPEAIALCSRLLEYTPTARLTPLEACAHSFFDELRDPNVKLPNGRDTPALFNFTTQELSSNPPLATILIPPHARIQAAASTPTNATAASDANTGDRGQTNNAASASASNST

[41] = biological target: Cyclin-dependent kinase 9 (Homo sapiens, UniProt P50750);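 note: value from the CDK9 entry of a kinome-spanning kinase panel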
[42] = biological target: BDNF/NT-3 growth factors receptor (Homo sapiens, UniProt Q16620);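 note: NTRK2 measured as one member of a broad kinome-wide kinase profiling panel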
[43] = biological target: Lymphokine-activated killer T-cell-originated protein kinase (Homo sapiens, UniProt Q96KB5);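 note: value comes from a kinase panel screen in which TOPK was one of the panel members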
[44] = biological target: Serine/threonine-protein kinase MRCK alpha (Homo sapiens, UniProt Q5VT25)
[45] = biological target: Serine/threonine-protein kinase BRSK1 (Homo sapiens, UniProt Q8TDC3);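 note: measured within a kinome-wide kinase panel, with the target listed as KIAA1811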
[46] = biological target: Dual specificity tyrosine-phosphorylation-regulated kinase 1A (Homo sapiens, UniProt Q13627);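 note: measured against DYRK1A as one member of a broad kinome profiling panel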

For `NC1CCCCC1Nc1nccc(-c2c[nH]c3ncccc23)n1` (stereo unspecified), the Ki [1] was 100 nM (active), the Ki [2] was 158 nM (active) and the Ki [3] was > 7940 nM (inactive). The Ki [4] was 251 nM (active), the Ki [5] was 501 nM (active) and the Ki [6] was > 2510 nM (inactive). The Ki [7] was 39.8 nM (active), the Ki [8] was 501 nM (active) and the Ki [9] was > 1260 nM (inactive). For the same compound, the Ki [10] was 39.8 nM (active), the Ki [11] was > 5010 nM (inactive) and the Ki [12] was 1260 nM (active). The Ki [13] was 251 nM (active), the Ki [14] was > 2000 nM (inactive) and the Ki [15] was 25.1 nM (active). For the same compound, the Ki [16] was 631 nM (active), the Ki [17] was > 5010 nM (inactive) and the Ki [18] was > 7940 nM (inactive). The Ki [19] was > 2000 nM (inactive), the Ki [20] was 251 nM (active) and the Ki [21] was > 2000 nM (inactive). The Ki [22] was > 1580 nM (inactive), the Ki [23] was 79.4 nM (active) and the Ki [24] was 126 nM (active). The Ki [25] was > 3160 nM (inactive), the Ki [26] was > 1580 nM (inactive) and the Ki [27] was > 10000 nM (inactive). For the same compound, the Ki [28] was 126 nM (active), the Ki [29] was 158 nM (active) and the Ki [30] was 39.8 nM (active). The Ki [31] was 100 nM (active), the Ki [32] was 5.01 nM (active) and the Ki [33] was 251 nM (active). The Ki [34] was > 2000 nM (inactive), the Ki [35] was 1000 nM (active) and the Ki [36] was 316 nM (active). For the same compound, the Ki [37] was > 10000 nM (inactive), the Ki [38] was > 398 nM (inactive) and the Ki [39] was 316 nM (active). For the same compound, the Ki [40] was 200 nM (active), the Ki [41] was 31.6 nM (active) and the Ki [42] was > 5010 nM (inactive). For the same compound, the Ki [43] was 631 nM (active), the Ki [44] was 63.1 nM (active) and the Ki [45] was 5010 nM (active). For the same compound, the Ki [46] was 7.94 nM (active).
